Measurements as given in US20190105367A1, “ANTIMICROBIAL 4-OXOQUINOLIZINES” (Emergent Product Development Gaithersburg Inc., priority 2011, published 2019).
In brackets after ≈: the same amount, converted by molar mass. Read-outs that look alike come from different tables or passages of the source.

Key:
[1] = system: strains of A. baumannii and one strain of Acinetobacter sp.; experiment: MIC with sub-inhibitory concentrations (0.25x MIC) of polymyxin B, panel of Acinetobacter strains (Example 4); assay type: cell-based
A. baumannii ATCC 19606 [2] = experiment: MIC without and with sub-inhibitory polymyxin B (Example 4); assay type: cell-based, Acinetobacter baumannii; conditions: for MIC without PB/MIC + PB: A. baumannii ATCC 19606
A. baumannii ATCC 19606 [3] = experiment: Preliminary MBC without and with sub-inhibitory polymyxin B (Example 4); assay type: cell-based, Acinetobacter baumannii; conditions: Acinetobacter baumannii
A. baumannii J2 = experiment: MIC without and with sub-inhibitory polymyxin B (Example 4); assay type: cell-based, Acinetobacter baumannii; conditions: for MIC without PB/MIC + PB: A. baumannii J2; for MIC: Acinetobacter baumannii
[4] = system: Acinetobacter sp. (H064200250); experiment: as above; assay type: cell-based; conditions: for MIC: Acinetobacter
A. baumannii A329 = experiment: Preliminary MBC without and with sub-inhibitory polymyxin B (Example 4); assay type: cell-based, Acinetobacter baumannii; conditions: Acinetobacter baumannii, A329, A. baumannii A329, +0.06 μg/ml PB, 2nd experiment, read-out: MBC
A. baumannii A387 [5] = experiment: MIC without and with sub-inhibitory polymyxin B (Example 4); assay type: cell-based, Acinetobacter baumannii; conditions: for MIC without PB/MIC + PB: A. baumannii A387
A. baumannii A387 [6] = experiment: Preliminary MBC without and with sub-inhibitory polymyxin B (Example 4); assay type: cell-based, Acinetobacter baumannii; conditions: Acinetobacter baumannii
A. baumannii A390 [7] = experiment: MIC without and with sub-inhibitory polymyxin B (Example 4); assay type: cell-based, Acinetobacter baumannii; conditions: +0.06 μg/ml PB, 2nd experiment
A. baumannii A14 [8] = experiment: Preliminary MBC without and with sub-inhibitory polymyxin B (Example 4); assay type: cell-based, Acinetobacter baumannii; conditions: A. baumannii A14, +0.06 μg/ml PB, 2nd experiment
Procedure, shortened: (§1)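 Incubation 18-20 h, 37° C. MBC = lowest conc. with ~90% fewer colonies than positive control (single/no colonies).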

A. baumannii A390 [9] = experiment: as above; assay type: cell-based, Acinetobacter baumannii; conditions: Acinetobacter baumannii, A390, A. baumannii A390, +0.06 μg/ml PB, 2nd experiment, read-out: MBC
Procedure, shortened: as §1

A. baumannii A473 [10] = experiment: as above; assay type: cell-based, Acinetobacter baumannii; conditions: Acinetobacter baumannii, A473, A. baumannii A473, +0.06 μg/ml PB, 2nd experiment, read-out: MBC
Procedure, shortened: as §1

A. baumannii NCTC 13301 [11] = experiment: as above; assay type: cell-based, Acinetobacter baumannii; conditions: Acinetobacter baumannii
Procedure, shortened: as §1

A. baumannii A401 [12] = experiment: MIC without and with sub-inhibitory polymyxin B (Example 4); assay type: cell-based, Acinetobacter baumannii; conditions: for MIC: Acinetobacter baumannii
A. baumannii A401 [13] = experiment: Preliminary MBC without and with sub-inhibitory polymyxin B (Example 4); assay type: cell-based, Acinetobacter baumannii; conditions: Acinetobacter baumannii
A. baumannii A472 [14] = experiment: MIC without and with sub-inhibitory polymyxin B (Example 4); assay type: cell-based, Acinetobacter baumannii; conditions: for MIC: Acinetobacter baumannii
A. baumannii A472 [15] = experiment: Preliminary MBC without and with sub-inhibitory polymyxin B (Example 4); assay type: cell-based, Acinetobacter baumannii; conditions: Acinetobacter baumannii, preliminary MBC
A. baumannii A473 [16] = experiment: MIC without and with sub-inhibitory polymyxin B (Example 4); assay type: cell-based, Acinetobacter baumannii; conditions: A. baumannii A473; +0.06 μg/ml PB; 2nd experiment
A. baumannii A489 = experiment: as above; assay type: cell-based, Acinetobacter baumannii; conditions: for MIC without PB/MIC + PB: A. baumannii A489; for MIC: Acinetobacter baumannii
A. baumannii NCTC 13301 [17] = experiment: as above; assay type: cell-based, Acinetobacter baumannii
A. baumannii NCTC 13301 [18] = experiment: as above; assay type: cell-based, Acinetobacter baumannii; conditions: +[…] PB, 2nd experiment
A. baumannii A14 [19] = experiment: as above; assay type: cell-based, Acinetobacter baumannii; conditions: 1st experiment
A. baumannii A14 [20] = experiment: as above; assay type: cell-based, Acinetobacter baumannii; conditions: 2nd experiment
A. baumannii A14 [21] = experiment: Preliminary MBC without and with sub-inhibitory polymyxin B (Example 4); assay type: cell-based, Acinetobacter baumannii; conditions: A. baumannii A14; +0.06 μg/ml polymyxin B; preliminary MBC; 1st experiment
[22] = ratio, PB 0.06 μg/ml, 1st experiment
[23] = A. baumannii A14, +0.06 μg/ml PB

Compound: Cc1c(-c2ccc(CN)c(F)c2)ccn2c(=O)c(C(=O)O)cc(C3CC3)c12 [Compound 4, 8-(3-fluoro-4-aminomethyl-phenyl)-1-cyclopropyl-9-methyl-4-oxo-quinolizine-3-carboxylic acid]
- Range ratios MIC without PB/MIC with PB Oct. 1, 2008 n = 8 ([1]; 1st experiment): 2-8
- MIC range with PB (0.25x MIC) Oct. 1, 2008 n = 8 ([1]; 1st experiment, […] polymyxin B, ATCC 19606, A329, A390 and A473 not taken): 1 to 8 µg/mL
- Range ratios MIC without PB/MIC with PB Oct. 14, 2008 n = 11 ([1]; 2nd experiment): 1-16
- MIC range with PB (0.25x MIC) Oct. 14, 2008 n = 11 ([1]; 2nd experiment, 0.06 μg/ml polymyxin B, all strains except the ATCC strain): 0.5 to 8 µg/mL
- MIC without PB/MIC + PB (A. baumannii ATCC 19606 [2]; +0.06 μg/ml PB, 2nd experiment): ≥16
- MIC without PB/MIC + PB (A. baumannii ATCC 19606 [2]; [22]): 2
- MIC (A. baumannii ATCC 19606 [2]; Acinetobacter baumannii, ATCC19606, read-out: MIC +0.06 μg/ml PB, A. baumannii ATCC 19606, +0.06 μg/ml polymyxin B, 1st experiment): 0.125 µg/mL
- MBC (A. baumannii ATCC 19606 [3]; ATCC19606, A. baumannii ATCC 19606, +0.06 μg/ml PB, 2nd experiment, read-out: MBC): ≤ 0.03 µg/mL
- MBC (A. baumannii ATCC 19606 [3]; ATCC19606, read-out: MBC +0.06 μg/ml PB, A. baumannii ATCC 19606, +0.06 μg/ml polymyxin B, 1st experiment): 0.06 µg/mL
- MIC without PB/MIC + PB (A. baumannii J2; +[…] PB, 2nd experiment): 128
- MIC without PB/MIC + PB (A. baumannii J2; ratio, PB […], 1st experiment): 4
- MIC (A. baumannii J2; J2, A. baumannii J2, +[…] PB, 2nd experiment, read-out: MIC): 0.06 µg/mL (≈ 0.164 µM)
- MIC (A. baumannii J2; J2, read-out: MIC +[…] PB, A. baumannii J2, +[…] polymyxin B, 1st experiment): 2 µg/mL (≈ 5.46 µM)
- MIC without PB/MIC + PB ([4]; Acinetobacter spp. H064200250 (OXA51), +[…] PB, 2nd experiment): 64
- MIC without PB/MIC + PB ([4]; Acinetobacter spp. H064200250, ratio, PB […], 1st experiment): 4
- MIC ([4]; Acinetobacter spp. H064200250 (OXA51), +[…] PB, 2nd experiment, read-out: MIC): 0.5 µg/mL (≈ 1.36 µM)
- MIC ([4]; read-out: MIC +[…] PB, Acinetobacter spp. H064200250, +[…] polymyxin B, 1st experiment): 4 µg/mL (≈ 10.9 µM)
- MBC (A. baumannii A329): 8 µg/mL (≈ 21.8 µM)
- MIC without PB/MIC + PB (A. baumannii A387 [5]; +0.06 μg/ml PB, 2nd experiment): 8
- MIC without PB/MIC + PB (A. baumannii A387 [5]; [22]): 2
- MIC (A. baumannii A387 [5]; Acinetobacter baumannii, A387, read-out: MIC +0.06 μg/ml PB, A. baumannii A387, +0.06 μg/ml polymyxin B, 1st experiment): 1 µg/mL
- MBC (A. baumannii A387 [6]; A387, A. baumannii A387, +0.06 μg/ml PB, 2nd experiment, read-out: MBC): 0.5 µg/mL (≈ 1.36 µM)
- MBC (A. baumannii A387 [6]; A387, read-out: MBC +0.06 μg/ml PB, A. baumannii A387, +0.06 μg/ml polymyxin B, 1st experiment): 1 µg/mL
- MIC without PB/MIC + PB (A. baumannii A390 [7]; A. baumannii A390): 64
- MIC (A. baumannii A390 [7]; Acinetobacter baumannii, A390, A. baumannii A390, read-out: MIC): 0.5 µg/mL (≈ 1.36 µM)
- MBC (A. baumannii A14 [8]): 8 µg/mL (≈ 21.8 µM)
- MBC (A. baumannii A390 [9]): 0.5 µg/mL (≈ 1.36 µM)
- MBC (A. baumannii A473 [10]): 0.25 µg/mL (≈ 0.682 µM)
- MBC (A. baumannii NCTC 13301 [11]; NCTC13301, A. baumannii NCTC 13301, +[…] PB, preliminary MBC, 2nd experiment, read-out: MBC): 0.25 µg/mL (≈ 0.682 µM)
- MBC (A. baumannii NCTC 13301 [11]; NCTC13301, read-out: MBC +[…] PB): 0.5 µg/mL (≈ 1.36 µM)
- MIC without PB/MIC + PB (A. baumannii A401 [12]; A baumannii A 401, ratio, PB 0.06 μg/ml, 1st experiment): 4
- MIC (A. baumannii A401 [12]; A401, A baumannii A 401, +0.06 μg/ml PB, 2nd experiment, read-out: MIC): 0.5 µg/mL (≈ 1.36 µM)
- MIC (A. baumannii A401 [12]; A401, read-out: MIC +0.06 μg/ml PB, A baumannii A 401, +0.06 μg/ml polymyxin B, 1st experiment): 4 µg/mL
- MBC (A. baumannii A401 [13]; A401, A baumannii A 401, +0.06 μg/ml PB, 2nd experiment, read-out: MBC): 0.5 µg/mL (≈ 1.36 µM)
- MBC (A. baumannii A401 [13]; A401, read-out: MBC +0.06 μg/ml PB, A baumannii A 401, +0.06 μg/ml polymyxin B, 1st experiment): 2 µg/mL
- MIC without PB/MIC + PB (A. baumannii A472 [14]; A. baumannii A472, ratio, PB […], 1st experiment): 4
- MIC (A. baumannii A472 [14]; A472, A. baumannii A472, +[…] PB, 2nd experiment, read-out: MIC): 0.125 µg/mL (≈ 0.341 µM)
- MIC (A. baumannii A472 [14]; A472, read-out: MIC +[…] PB, A. baumannii A472, +[…] polymyxin B, 1st experiment): 1 µg/mL (≈ 2.73 µM)
- MBC (A. baumannii A472 [15]; A472, A. baumannii A472, +[…] PB, 2nd experiment, read-out: MBC): 0.125 µg/mL (≈ 0.341 µM)
- MBC (A. baumannii A472 [15]; A472, read-out: MBC +[…] PB, A. baumannii A472, +[…] polymyxin B, 1st experiment): 1 µg/mL (≈ 2.73 µM)
- MIC (A. baumannii A473 [16]): 0.25 µg/mL (≈ 0.682 µM)
- MIC without PB/MIC + PB (A. baumannii A473 [16]): 32
- MIC without PB/MIC + PB (A. baumannii A489; +[…] PB, 2nd experiment): ≥512
- MIC without PB/MIC + PB (A. baumannii A489; ratio, PB […], 1st experiment): 8
- MIC (A. baumannii A489; A489, A. baumannii A489, +[…] PB, 2nd experiment, read-out: MIC): ≤ 0.03 µg/mL
- MIC (A. baumannii A489; A489, read-out: MIC +[…] PB, A. baumannii A489, +[…] polymyxin B, 1st experiment): 1 µg/mL (≈ 2.73 µM)
- MIC without PB/MIC + PB (A. baumannii NCTC 13301 [17]; A. baumannii NCTC 13301, ratio, PB […], 1st experiment): 8
- MIC (A. baumannii NCTC 13301 [17]; Acinetobacter baumannii, NCTC13301, read-out: MIC +[…] PB): 1 µg/mL (≈ 2.73 µM)
- MIC without PB/MIC + PB (A. baumannii NCTC 13301 [18]; A. baumannii NCTC 13301): 128
- MIC (A. baumannii NCTC 13301 [18]; Acinetobacter baumannii, NCTC13301, A. baumannii NCTC 13301, read-out: MIC): 0.25 µg/mL (≈ 0.682 µM)
- MIC +0.06 μg/ml PB (A. baumannii A14 [19]; +0.06 μg/ml polymyxin B): 8 µg/mL
- MIC without PB/MIC + PB (A. baumannii A14 [19]; ratio, PB 0.06 μg/ml): 4
- MIC (A. baumannii A14 [20]; [23]): 2 µg/mL (≈ 5.46 µM)
- MIC without PB/MIC + PB (A. baumannii A14 [20]; [23]): 16
- MIC (A. baumannii A14 [20]; Acinetobacter baumannii, A14, A. baumannii A14, without PB, read-out: MIC): 32 µg/mL (≈ 87.3 µM)
- MBC +0.06 μg/ml PB (A. baumannii A14 [21]): 8 µg/mL
